Where a SMILES comes first, the peptide text is derived from it. Where no end group is shown, it is not given here. The star is where a group is joined. X2 = CC1(C)C(/C=C/C2=C(Oc3ccc(S(=O)(=O)O)cc3)C(=C/C=C3/N(CCCCCC(=O)NCCN4C(=O)CC(*)C4=O)c4ccc(S(=O)(=O)O)cc4C3(C)C)/CCC2)=[N+](CCCCS(=O)(=O)O)c2ccc(S(=O)(=O)[O-])cc21; X1 = CC1(C)C(/C=C/C=C/C=C/C=C2/N(CCCCCC(=O)NCCN3C(=O)CC(*)C3=O)c3ccc4ccccc4c3C2(C)C)=[N+](CCCCS(=O)(=O)[O-])c2ccc3ccccc3c21; ICG maleimide = indocyanine green maleimide
Key:
[1] = residue X in AcWL-X-LL, relative to virtual glycine; cited from earlier work
[2] = cited from earlier work
[3] = humans, high dose of 5 mg/kg of body weight; cited from earlier work
[4] = free ICG as used now; cited from earlier work
[5] = NIR fluorescence imaging of blood vessels and blood flow (ear, leg, blood samples) in mice; type: in vivo, mouse; conditions: for fluorescent signal in blood samples: blood collected 5-120 min after IV injection; for imaging of blood vessels in ear and leg: IV 100 μL of 40 μM, 5, 30, 60, 90, 120 min
Method: Adult female nude mice (Envigo), 20 g in body mass were used in the study. Fluorescent constructs were given as a single tail vein injection in amounts of 100 μL of 40 μM in PBS. Imaging of mouse ear and leg was performed at 5, 30, 60, 90 and 120 min after construct administration. At 5, 30, 60, 90 and 120 min after construct administration 5 μL of blood was withdrawn from tail (and mixed with 5 μL of anticoagulating solution to preserve blood) while animal was under anesthesia. Mice were euthanized immediately after last imaging point (120 min). Blood collected from all animals was deposited on the glass slide, dried and imaged. Imaging was performed using Novadaq clinical imaging instrument. Autofluorescence was established by imaging mouse with no injection of fluorescent constructs (the level of autofluorescence signal was insignificant compared to the signal after the constructs administration).

[6] = cited from earlier work; remark: listed apart in the source
[7] = tested on: 4T1 murine mammary carcinoma; assay: Tumor targeting in mice bearing 4T1 tumors; type: in vivo, mouse; conditions: 20 μM, IV, 16 h
Method: Adult female nude mice and female BALB/cAnNHsd mice (Envigo), 20-25 g in body mass were used in the study. Mouse mammary cancer 4T1 cells were subcutaneously implanted in the right flank (8×10^5 cells/0.1 mL/flank) of adult female BALB/cAnNHsd mice. Rat bladder cancer AY27 cells were subcutaneously implanted in the right flank (8×10^5 cells/0.1 mL/flank) of adult female nude mice. When tumors reached approximately 5-6 mm in diameter, single tail vein injection or single intraperitoneal injection of fluorophore-pHLIP® solutions in PBS were performed. Fluorescent constructs were used in amounts of 100 μL of 40 μM, or 100 μL of 20 μM, or 100 μL of 10 μM, or 100 μL of 5 μM. Imaging of mouse was performed at 16 hours after constructs administration. Skin was removed from the tumor site just before imaging while animal was under gas anesthesia, and mice were euthanized immediately after imaging. Tumor, kidney and liver were harvested, imaged and used for histopathological analysis. Imaging was performed using Stryker clinical imaging instrument. Autofluorescence was established by imaging mouse with no injection of fluorescent constructs (the level of autofluorescence signal was insignificant compared to the signal after the constructs administration).

Molecule | ΔGX^cor, solvation free energy of the side chain [1] | other results
C[C@H](N)C(=O)O [Ala, Alanine] | +0.65 kcal/mol | 
N=C(N)NCCC[C@H](N)C(=O)O [Arg, Arginine] | -0.66 kcal/mol | 
NC(=O)C[C@H](N)C(=O)O [Asn, Asparagine] | +0.30 kcal/mol | 
N[C@@H](CC(=O)O)C(=O)O [Asp, Aspartic acid] | -2.49 kcal/mol | 
N[C@@H](CCC(=O)O)C(=O)O [Glu, Glutamic acid] | -2.48 kcal/mol | 
N[C@@H](Cc1c[nH]cn1)C(=O)O [His, Histidine] | -1.18 kcal/mol | 
CC1(C)C(/C=C/C=C/C=C/C=C2\N(CCCCS(=O)(=O)[O-])c3ccc4ccccc4c3C2(C)C)=[N+](CCCCS(=O)(=O)[O-])c2ccc3ccccc3c21.[Na+] [ICG, indocyanine green] |  | time of appearance unconjugated in the bile ([2]; after intravenous injection): about 8 min; half-life time ([2]; following intravenous injection): 2.5 min; time to reach the nearest draining lymph node ([2]; injected outside blood vessels): ≤ 15 min; toxic effects [3]: No significant toxic effects; imaging time [4]: 2 to 5 min
CC[C@H](C)[C@H](NC(=O)[C@@H]1CCCN1C(=O)[C@H](CC(N)=O)NC(=O)[C@H](CCC(N)=O)NC(=O)[C@H](CCC(=O)O)NC(=O)[C@H](CSC1CC(=O)N(CCNC(=O)CCCCCN2/C(=C/C=C/C=C/C=C/C3=[N+](CCCCS(=O)(=O)[O-])c4ccc5ccccc5c4C3(C)C)C(C)(C)c3c2ccc2ccccc32)C1=O)NC(=O)[C@H](C)N)C(=O)N[C@@H](Cc1ccc(O)cc1)C(=O)N[C@@H](Cc1c[nH]c2ccccc12)C(=O)N[C@@H](C)C(=O)N[C@@H](CCCNC(=N)N)C(=O)N[C@@H](Cc1ccc(O)cc1)C(=O)N[C@@H](C)C(=O)N[C@@H](CC(N)=O)C(=O)N[C@@H](Cc1c[nH]c2ccccc12)C(=O)N[C@@H](CC(C)C)C(=O)N[C@@H](Cc1ccccc1)C(=O)N[C@H](C(=O)N[C@H](C(=O)N1CCC[C@H]1C(=O)N[C@@H](CC(C)C)C(=O)N[C@@H](CC(C)C)C(=O)N[C@@H](CC(C)C)C(=O)N[C@@H](CC(C)C)C(=O)N[C@@H](CC(N)=O)C(=O)N[C@@H](CC(C)C)C(=O)N[C@@H](C)C(=O)N[C@@H](CC(C)C)C(=O)N[C@@H](CC(C)C)C(=O)N[C@H](C(=O)N[C@@H](CC(=O)O)C(=O)N[C@@H](C)C(=O)N[C@@H](CC(=O)O)C(=O)N[C@@H](CCC(=O)O)C(=O)NCC(=O)N[C@H](C(=O)O)[C@@H](C)O)C(C)C)[C@@H](C)O)[C@@H](C)O (some centres unmarked) [ICG-NpHLIP®] (H-AC(X1)EQNPIYWARYANWLFTTPLLLLNLALLVDADEGT-OH) |  | fluorescent signal in blood samples [5]: significantly reduced signal
CC[C@H](C)[C@H](NC(=O)[C@@H]1CCCN1C(=O)[C@H](CC(N)=O)NC(=O)[C@H](CCC(N)=O)NC(=O)[C@H](CCC(=O)O)NC(=O)[C@H](CSC1CC(=O)N(CCNC(=O)CCCCCN2/C(=C/C=C/C=C/C=C/C3=[N+](CCCCS(=O)(=O)[O-])c4ccc5ccccc5c4C3(C)C)C(C)(C)c3c2ccc2ccccc32)C1=O)NC(=O)[C@H](C)N)C(=O)N[C@@H](Cc1ccc(O)cc1)C(=O)N[C@@H](Cc1c[nH]c2ccccc12)C(=O)N[C@@H](C)C(=O)N[C@@H](CCCNC(=N)N)C(=O)N[C@@H](Cc1ccc(O)cc1)C(=O)N[C@@H](C)C(=O)N[C@@H](CC(=O)O)C(=O)N[C@@H](Cc1c[nH]c2ccccc12)C(=O)N[C@@H](CC(C)C)C(=O)N[C@@H](Cc1ccccc1)C(=O)N[C@H](C(=O)N[C@H](C(=O)N1CCC[C@H]1C(=O)N[C@@H](CC(C)C)C(=O)N[C@@H](CC(C)C)C(=O)N[C@@H](CC(C)C)C(=O)N[C@@H](CC(C)C)C(=O)N[C@@H](CC(=O)O)C(=O)N[C@@H](CC(C)C)C(=O)N[C@@H](C)C(=O)N[C@@H](CC(C)C)C(=O)N[C@@H](CC(C)C)C(=O)N[C@H](C(=O)N[C@@H](CC(=O)O)C(=O)N[C@@H](C)C(=O)N[C@@H](CC(=O)O)C(=O)N[C@@H](CCC(=O)O)C(=O)NCC(=O)N[C@H](C(=O)O)[C@@H](C)O)C(C)C)[C@@H](C)O)[C@@H](C)O (some centres unmarked) [ICG-WT pHLIP®] |  | fluorescent signal in blood samples [5]: persistence of strong fluorescent signal within 2 hours
C#CCNC(=O)CCCCC[N+]1=C(/C=C/C=C/C=C/C=C2\N(CCCCS(=O)(=O)[O-])c3ccc4ccccc4c3C2(C)C)C(C)(C)c2c1ccc1ccccc21 [ICG-alkyne] |  | Solubility [6]: DMSO, DMF, Acetonitrile, Methanol
CC(C)C[C@H](NC(=O)[C@H](Cc1ccc(O)cc1)NC(=O)[C@H](C)NC(=O)[C@H](CCCNC(=N)N)NC(=O)[C@H](Cc1c[nH]c2ccccc12)NC(=O)[C@@H]1CCCN1C(=O)[C@H](CC(N)=O)NC(=O)[C@H](CCC(N)=O)NC(=O)[C@H](CC(=O)O)NC(=O)[C@H](CC(=O)O)NC(=O)[C@H](CSC1CC(=O)N(CCNC(=O)CCCCCN2/C(=C/C=C3\CCCC(/C=C/C4=[N+](CCCCS(=O)(=O)O)c5ccc(S(=O)(=O)[O-])cc5C4(C)C)=C3Oc3ccc(S(=O)(=O)O)cc3)C(C)(C)c3cc(S(=O)(=O)O)ccc32)C1=O)NC(=O)[C@H](C)N)C(=O)N[C@@H](CC(=O)O)C(=O)N[C@@H](CC(C)C)C(=O)N[C@@H](CC(C)C)C(=O)N[C@@H](Cc1ccccc1)C(=O)N1CCC[C@H]1C(=O)N[C@H](C(=O)N[C@@H](CC(=O)O)C(=O)N[C@H](C(=O)N[C@@H](CC(C)C)C(=O)N[C@@H](CC(C)C)C(=O)N[C@@H](CC(C)C)C(=O)N[C@@H](CC(=O)O)C(=O)N[C@@H](CC(C)C)C(=O)N[C@@H](CC(C)C)C(=O)N[C@@H](Cc1c[nH]c2ccccc12)C(=O)N[C@@H](C)C(=O)O)[C@@H](C)O)[C@@H](C)O (some centres unmarked) [IR800-Var3] (H-AC(X2)DDQNPWRAYLDLLFPTDTLLLDLLWA-OH) |  | organ of clearance [7]: cleared by the kidney
NCCCC[C@H](N)C(=O)O [Lys, Lysine] | -1.65 kcal/mol | 
CSCC[C@H](N)C(=O)O [Met, Methionine] | +1.82 kcal/mol | 
N[C@@H](Cc1ccccc1)C(=O)O [Phe, Phenylalanine] | +2.86 kcal/mol | 
O=C(O)[C@@H]1CCCN1 [Pro, Proline] | +1.01 kcal/mol | 
N[C@@H](CO)C(=O)O [Ser, Serine] | +0.69 kcal/mol | 
C[C@@H](O)[C@H](N)C(=O)O [Thr, Threonine] | +0.90 kcal/mol | 
N[C@@H](Cc1c[nH]c2ccccc12)C(=O)O [Trp, Tryptophan] | +3.24 kcal/mol | 
N[C@@H](Cc1ccc(O)cc1)C(=O)O [Tyr, Tyrosine] | +1.86 kcal/mol | 
CC(C)[C@H](N)C(=O)O [Val, Valine] | +1.61 kcal/mol | 
ICG-Hum pHLIP®: ICG maleimide conjugated to Cys of Hum pHLIP® GCDNNEGFFATLGGEIPLWSDVVLAIEG (SEQ ID NO: 446) (GC(ICG maleimide)DNNEGFFATLGGEIPLWSDVVLAIEG) |  | imaging of blood vessels in ear and leg [5]: slow in reaching the best imagibility condition and was fast in decaying
IR800-WT: IR800 maleimide conjugated to Cys of WT pHLIP® peptide (SEQ ID NO: 444) (AC(IR800 maleimide)EQNPIYWARYADWLFTTPLLLLDLALLVDADEGT) |  | imaging of blood vessels in ear and leg [5]: better in imaging of blood vessels, however not nearly as good as ICG-WT and ICG-Var3 pHLIP®s

Source: patent publication US11738096B2, “Method of detecting diseased or damaged tissue with a pH-triggered polypeptide fluorophore composition” (University of Rhode Island Board of Trustees, priority 2016, dated 2023)
